Reference: US4727082A, “Dihydropyridine compounds and pharmaceutical compositions containing them” (Yamanouchi Pharmaceutical Co., Ltd., priority 1984, dated 1988)
Like-named read-outs stand apart in the source and are kept apart here.

Columns and labels:
[1] = Hemodynamic effects in anesthetized open-chest dogs; assay type: in vivo, Mongrel dogs; conditions: Canis lupus familiaris; for change in vivo at 1 mg/kg: 1.0 mg/kg iv; for change in vivo at 0.3 mg/kg: 0.3 mg/kg iv; for change in vivo at 0.1 mg/kg: 0.1 mg/kg iv
Protocol: Mongrel dogs of either sex were anesthetized with pentobarbital sodium (30 mg/kg iv). The animals were artificially ventilated with room air. The chest was opened at the left 4th intercostal space. Mean arterial blood pressure (MBP), heart rate (HR), left ventricular pressure (LVP), max. dLVP/dt, mean pulmonary arterial blood pressure (MPAP), cardiac output (CO) and coronary blood flow (Cor. BF) were measured. The test compounds were injected into the femoral vein. Hemodynamic effects of these compounds were compared with that of well known Ca^2+ -antagonists. Table 1 (column 1) indicates the percent changes of MBP and Cor. BF from control values induced by intravenous injection of test compounds.

Beta-adrenoceptor [2] = biological target: T1, Beta-adrenoceptor (Rattus norvegicus, UniProt P18090); experiment: Beta-adrenoceptor blocking effects: blockade of positive chronotropic response to isoproterenol; assay type: in vivo, male Wistar rats; conditions: read-out: Beta Blocking ED50
T1 construct: from tissue; host or cells: heart in situ of anesthetized male Wistar rats (in vivo, i.v. dosing)
T1 sequence (P18090 whole entry): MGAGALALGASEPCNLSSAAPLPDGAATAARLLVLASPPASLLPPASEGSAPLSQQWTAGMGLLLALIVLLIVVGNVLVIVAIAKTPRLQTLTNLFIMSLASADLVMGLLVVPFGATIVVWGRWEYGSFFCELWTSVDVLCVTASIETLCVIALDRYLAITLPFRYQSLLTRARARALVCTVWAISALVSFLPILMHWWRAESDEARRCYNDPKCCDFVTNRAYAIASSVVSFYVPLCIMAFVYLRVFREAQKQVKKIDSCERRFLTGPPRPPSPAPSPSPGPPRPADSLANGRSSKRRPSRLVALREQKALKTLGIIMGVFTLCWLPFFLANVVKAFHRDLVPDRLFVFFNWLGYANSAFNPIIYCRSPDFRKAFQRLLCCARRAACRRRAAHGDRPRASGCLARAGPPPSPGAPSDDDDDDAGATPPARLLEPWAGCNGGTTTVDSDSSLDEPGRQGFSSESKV
Protocol: (§1) The rats were pretreated with reserpine (8 mg/kg ip), 18 hr before experiments. […] The heart rate was measured with a cardiotachometer triggered by the QRS of the ECG (lead II) and recorded on a polygraph. After the control response to isoproterenol at a dose of 0.1 μg/kg iv was obtained, the test compound was injected iv in increasing doses at 20 min intervals.

Beta-adrenoceptor [3] = biological target: T1, Beta-adrenoceptor; experiment: Intrinsic sympathomimetic activity (ISA), increase in heart rate; assay type: in vivo, male Wistar rats; conditions: increase in HR, reserpinized rats, iv
Protocol: as §1
In this series of experiments, intrinsic sympathomimetic activity (ISA) was also evaluated. The results are shown in Table 1 (column 4), wherein "-" represents that an increase in HR was scarcely observed, "+" represents an increase in HR of 10 to 19 beats/min, "++" represents an increase in HR of 20 to 29 beats/min, and "+++" represents an increase in HR of above 30 beats/min.

coronary artery = experiment: Coronary vasodilating effects, intracoronary injection in anesthetized dogs; assay type: in vivo, Mongrel dogs; conditions: for Duration of action of coronary vasodilating effect: intracoronary injection; for ED100 pap (dose for 100% increase of Cor. BF): intracoronary, maximum response to papaverine 300 μg ia = 100%
Protocol: Mongrel dogs of either sex were anesthetized and ventilated as previously described. A thoracotomy was performed at the 4th intercostal space. Following an intravenous injection of […] (1000 units/kg), blood from the distal end of the cannulated carotid artery was pumped into circumflex branch of the left coronary artery using a servocontrolled peristaltic pump which maintained a constant perfusion pressure of 120 mmHg by means of a pump controller. An electromagnetic flow probe was inserted in the circuit to record blood flow through the cannulated coronary artery. The test compounds were administered directly into the rubber tubing connected close to the coronary artery cannula. Coronary vasodilating potency of the test compounds was by calculating the dose required to produce 100% increase of Cor. BF (ED100 pap), when the maximum responses to papaverine at a dose of 300 μg ia was expressed at 100% response.

[4] = read-out: Cor. BF, percent change from control
[5] = read-out: MBP, percent change from control
[6] = 50% blockade of chronotropic response to isoproterenol 0.1 μg/kg iv, reserpinized, vagotomized rats, cumulative dose

Row | SMILES | change in vivo at 1 mg/kg [1, 4] | change in vivo at 1 mg/kg [1, 5] | ED50 (Beta-adrenoceptor [2]; iv) | ISA (Beta-adrenoceptor [3]) | Duration of action of coronary vasodilating effect (coronary artery) | ED100 pap (dose for 100% increase of Cor. BF) (coronary artery) | change in vivo at 0.3 mg/kg [1, 4] | change in vivo at 0.3 mg/kg [1, 5] | ED50 (Beta-adrenoceptor [2]; [6]) | change in vivo at 0.1 mg/kg [1, 4] | change in vivo at 0.1 mg/kg [1, 5]
1 | COC(=O)C1=C(C)NC(C)=C(C(=O)OC)C1c1cc(SC)ccc1OCCCCNCC(O)COc1ccccc1.Cl (stereo not drawn) [Example 28, dimethyl 4-[2-[4-(2-hydroxy-3-phenoxypropylamino)butoxy]-5-methylthiophenyl]-2,6-dimethyl-1,4-dihydropyridine-3,5-dicarboxylate hydrochloride] | 70% | -28% | 0.27 mg/kg | - | 30 min | 555 μg ia |  |  |  |  | 
2 | CCOC(=O)C1=C(C)NC(C)=C(C(=O)OC)C1c1cc([N+](=O)[O-])ccc1OCCCCNCC(O)COc1ccccc1 (stereo not drawn) [Example 10, ethyl methyl 4-[2-[4-(2-hydroxy-3-phenoxypropylamino)butoxy]-5-nitrophenyl]-2,6-dimethyl-1,4-dihydropyridine-3,5-dicarboxylate] |  |  |  | - | > 60 min | 400 μg ia | 26% | -12% | 0.73 mg/kg |  | 
3 | COC(=O)C1=C(C)NC(C)=C(C(=O)OC)C1c1ccccc1OCCCCNCC(O)COc1ccccc1 (stereo not drawn) [Example 34, dimethyl 4-[o-[4-(2-hydroxy-3-phenoxypropylamino)butoxy]phenyl]-2,6-dimethyl-1,4-dihydropyridine-3,5-dicarboxylate] |  |  |  | - | > 60 min | 175 μg ia | 3% | -18% | 0.9 mg/kg |  | 
4 | COC(=O)C1=C(C)NC(C)=C(C(=O)OC)C1c1cc(Cl)ccc1OCCCCNCC(O)COc1ccccc1 (stereo not drawn) [Example 24, dimethyl 4-[5-chloro-2-[4-(2-hydroxy-3-phenoxypropylamino)butoxy]phenyl]-2,6-dimethyl-1,4-dihydropyr idine-3,5-dicarboxylate] | 62% | -33% |  | - | 60 min | 245 μg ia |  |  | 1.5 mg/kg |  | 
5 | COC(=O)C1=C(C)NC(C)=C(C(=O)OC)C1c1cc([N+](=O)[O-])ccc1OCCCCCNCC(O)COc1ccccc1 (stereo not drawn) [Example 12, dimethyl 4-[2-[5-(2-hydroxy-3-phenoxypropylamino)pentyloxy]-5-nitrophenyl]-2,6-dimethyl-1,4-dihydropyridine-3,5-dicarboxylate] |  |  |  | - | > 60 min | 475 μg ia | 14% | -18% | 2.58 mg/kg |  | 
6 | COC(=O)C1=C(C)NC(C)=C(C(=O)OC)C1c1cc([N+](=O)[O-])ccc1OCCNCC(O)COc1ccccc1 (stereo not drawn) [Example 1, dimethyl 4-[2-[2-(2-hydroxy-3-phenoxypropylamino)ethoxy]-5-nitrophenyl]-2,6-dimethyl-1,4-dihydropyridine-3,5-dicarboxylate] |  |  |  | +++ (an increase in HR of above 30 beats/min) | 15 min | 75 μg ia | 69% | -17% | 0.13 mg/kg | 21% | -7%
7 | COC(=O)C1=C(C)NC(C)=C(C(=O)OC)C1c1cc(S(C)(=O)=O)ccc1OCCCCNCC(O)COc1ccccc1 (stereo not drawn) [Example 23, dimethyl 4-[2-[4-(2-hydroxy-3-phenoxypropylamino)butoxy]-5-methylsulfonylphenyl]-2,6-dimethyl-1,4-dihydropyridine-3,5-dicarboxylate] | 64% | -32% |  | - | > 60 min | 780 μg ia |  |  | 0.03 mg/kg |  | 
8 | CCOC(=O)C1=C(C)NC(C)=C(C(=O)OCC)C1c1cc([N+](=O)[O-])ccc1OCCCCNCC(O)COc1ccccc1 (stereo not drawn) [Example 18, diethyl 4-[2-[4-(2-hydroxy-3-phenoxypropylamino)butoxy]-5-nitrophenyl]-2,6-dimethyl-1,4-dihydropyridine-3,5-dicarboxylate] |  |  |  | - | 60 min | 285 μg ia | 20% | -13% | 3.11 mg/kg |  | 
9 | COC(=O)C1=C(C)NC(C)=C(C(=O)OC)C1c1cc([N+](=O)[O-])ccc1OCCCCNC[C@@H](O)COc1ccccc1 [Example 17, (R)-(+)-dimethyl 4-[2-[4-(2-hydroxy-3-phenoxypropylamino)butoxy]-5-nitrophenyl]-2,6-dimethyl-1,4-dihydropyridine-3,5-dicarboxylate] | 94% | -35% |  | - | > 60 min | 158 μg ia |  |  | 3.53 mg/kg |  | 
10 | COC(=O)C1=C(C)NC(C)=C(C(=O)OC)C1c1cc([N+](=O)[O-])ccc1OCCCCNC[C@H](O)COc1ccccc1 [Example 16, (S)-(-)-dimethyl 4-[2-[4-(2-hydroxy-3-phenoxypropylamino)butoxy]-5-nitrophenyl]-2,6-dimethyl-1,4-dihydropyridine-3,5-dicarboxylate] | 97% | -31% |  | - | > 60 min | 162 μg ia |  |  | 0.39 mg/kg |  | 
11 | COC(=O)C1=C(C)NC(C)=C(C(=O)OC)C1c1cc(OC)ccc1OCCCCNCC(O)COc1ccccc1 (stereo not drawn) [Example 26, dimethyl 4-[2-[4-(2-hydroxy-3-phenoxypropylamino)butoxy]-5-methoxyphenyl]-2,6-dimethyl-1,4-dihydropyridine-3,5-dicarboxylate] | 43% | -38% |  | - | 40 min | 600 μg ia |  |  | 0.53 mg/kg |  | 
12 | COC(=O)C1=C(C)NC(C)=C(C(=O)OC)C1c1cc([N+](=O)[O-])ccc1OCCCNCC(O)COc1ccccc1 (stereo not drawn) [Example 8, dimethyl 4-[2-[3-(2-hydroxy-3-phenoxypropylamino)propoxy]-5-nitrophenyl]-2,6-dimethyl-1,4-dihydropyridine-3,5-dicarboxylate] | 10% | -29% |  | + (an increase in HR of 10 to 19 beats/min) | 60 min | 645 μg ia |  |  | 0.31 mg/kg |  | 
13 | COc1ccc([C@@H]2Sc3ccccc3N(CCN(C)C)C(=O)[C@@H]2OC(C)=O)cc1 [Diltiazem, reference compound] |  |  |  |  | 20 min | 51 μg ia | 90% | -30% |  |  | 
14 | COC(=O)C1=C(C)NC(C)=C(C(=O)OC)C1c1cc([N+](=O)[O-])ccc1OCCCCNCC(O)COc1ccc(NC(C)=O)cc1 (stereo not drawn) [Example 42, dimethyl 4-[2-[4-[3-(p-acetamidophenoxy)-2-hydroxypropylamino]butoxy]-5-nitrophenyl]-2,6-dimethyl-1,4-dihydropyridine-3,5-dicarboxylate] | 8% | -13% |  | - | > 60 min | 515 μg ia |  |  | 0.5 mg/kg |  | 
15 | COC(=O)C1=C(C)NC(C)=C(C(=O)OC)C1c1cc([N+](=O)[O-])ccc1OCCCCNCC(O)COc1ccccc1 (stereo not drawn) [Example 15, dimethyl 4-[2-[4-(2-hydroxy-3-phenoxypropylamino)butoxy]-5-nitrophenyl]-2,6-dimethyl-1,4-dihydropyridine-3,5-dicarboxylate] | 96% | -33% |  | - | > 60 min | 228 μg ia |  |  | 0.7 mg/kg |  | 
